One data set has as its target wild-type EGFR (Homo sapiens, UniProt P00533). Conditions: reportedly; cited from earlier work.
Data set [1] can be described thus: Reactivity as covalent inhibitor: half-life in buffered aqueous cysteine solution. Conditions: for half-life: PBS buffer with cysteine, 37° C.; for Improvement (%) of t½ in cysteine solution: deuterated compound vs. reference osimertinib. Here is the method:
The combo solutions were prepared by mixing individual evaluated compounds with reference osimertinib. Then, they were added to PBS buffer solution with cysteine at 37° C. The stability time course samples (in triplicate) were taken and added to prechilled quenching solution and then store at −70° C. freezer. The samples were analyzed on a Waters Acquity UPLC system coupled with a Bruker Q-tof mass spectrometer. The peak areas of respective extracted ion chromatograms were used for relative comparison.

Data set [2] can be described thus: Drug metabolism and pharmacokinetic evaluation in human liver microsome suspensions (percentage of compound remaining vs. incubation time). It is filed as in vitro ADME. Conditions: human liver microsomes, NADPH, 37° C., after 4 hour, combo incubation with Osimertinib. Here is the method:
In vitro drug metabolism and pharmacokinetic evaluation of D16-Osimertinib, and D19-Osimertinib against Osimertinib was conducted in Human Liver Microsome suspensions. The stability time course samples were prepared in house and extracted immediately by protein precipitation method using MeCN containing 400 ng/mL carbutomide as the internal standard (IS). The samples were analyzed on a Waters Acquity UPLC system coupled with a Bruker Q-tof mass spectrometer. The peak areas of respective extracted ion chromatograms were used for relative comparison. The sample preparation was performed according to the following procedure: […] The samples were put in 37° C. incubator for 10 minutes. […] The samples were vortexed and centrifuged at 13,000 g for approximately 5 minutes, then supernatants were taken and stored in −20° C. freezer. The sampling at a time point was triplicate. After the last samples were taken and they were placed in −20° C. at least 1 hour. All samples were put into a refrigerator at approximate 4° C. for 30 minutes. The samples were vortexed. Then approximately 100 μL of the supernatants were transferred to corresponding wells of a 96-well plate. The samples were diluted with 100 μL of 0.1% FA in water. The samples were vortexed and briefly centrifuged for LC-HRMS analysis. Sample chamber for LC-HRMS was kept at approximate 4° C. […]
For orientation: Liver microsomes are vesicles of endoplasmic reticulum, rich in cytochrome P450 enzymes.

Data set [3] concerns A431 human squamous carcinoma cells (WT EGFR). Briefly: Cell-based experiment on inhibition of WT-EGFR: cell proliferation of A431 cells. The text has this:
(§1) A431 cells are a model human cell line which express abnormally high levels of the wide-type epidermal growth factor receptor (WT EGFR). WT EGFR inhibitors can affect cell prolification of the cells. Similarly the prolification of HepG2 hepatoma cells can be inhibited by WT EGFR inhibitors.

A further data set deals with HepG2 hepatoma cells. Briefly: Cell-based experiment on inhibition of WT-EGFR: cell proliferation of HepG2 hepatoma cells.
Source text: as §1

Data set [4] is described as follows: Monkey pharmacokinetic study on deuteration of indole N-methyl group. The data set is classed as in vivo. Conditions: cynomolgus monkey, blood; male cynomolgus monkeys, single oral administration, 20 mg/Kg; read-out: AUC(0-t) of the parent. Here is the method: A total of two (2) cynomolgus monkeys (male) were placed on study. Washout period lasted 7 days between two phases. Each test article was administered to an individual animal via a single oral administration for all groups. The dose levels were 20 mg/Kg. All animals were given detailed clinical examinations prior to administration, and no abnormality was observed. Cage side observation was conducted on all animals twice daily throughout the duration of administration. All animals were weighed before dosing on the day of administration. Blood samples were collected predose and postdose 0.25, 0.5, 1, 2, 3, 4, 6, 8, 12, 24, 36 and 48 h from the femoral vein at appropriate time points for analysis. These samples were analyzed by LC-MS/MS.

Where [5] appears, read: combo solution with osimertinib, read-out: Half-life in cysteine solution, Deuterated (t½ h) (converted).

Read-outs that look alike come from different tables or passages of the source.

Chain of wild-type EGFR (P00533 25-1210): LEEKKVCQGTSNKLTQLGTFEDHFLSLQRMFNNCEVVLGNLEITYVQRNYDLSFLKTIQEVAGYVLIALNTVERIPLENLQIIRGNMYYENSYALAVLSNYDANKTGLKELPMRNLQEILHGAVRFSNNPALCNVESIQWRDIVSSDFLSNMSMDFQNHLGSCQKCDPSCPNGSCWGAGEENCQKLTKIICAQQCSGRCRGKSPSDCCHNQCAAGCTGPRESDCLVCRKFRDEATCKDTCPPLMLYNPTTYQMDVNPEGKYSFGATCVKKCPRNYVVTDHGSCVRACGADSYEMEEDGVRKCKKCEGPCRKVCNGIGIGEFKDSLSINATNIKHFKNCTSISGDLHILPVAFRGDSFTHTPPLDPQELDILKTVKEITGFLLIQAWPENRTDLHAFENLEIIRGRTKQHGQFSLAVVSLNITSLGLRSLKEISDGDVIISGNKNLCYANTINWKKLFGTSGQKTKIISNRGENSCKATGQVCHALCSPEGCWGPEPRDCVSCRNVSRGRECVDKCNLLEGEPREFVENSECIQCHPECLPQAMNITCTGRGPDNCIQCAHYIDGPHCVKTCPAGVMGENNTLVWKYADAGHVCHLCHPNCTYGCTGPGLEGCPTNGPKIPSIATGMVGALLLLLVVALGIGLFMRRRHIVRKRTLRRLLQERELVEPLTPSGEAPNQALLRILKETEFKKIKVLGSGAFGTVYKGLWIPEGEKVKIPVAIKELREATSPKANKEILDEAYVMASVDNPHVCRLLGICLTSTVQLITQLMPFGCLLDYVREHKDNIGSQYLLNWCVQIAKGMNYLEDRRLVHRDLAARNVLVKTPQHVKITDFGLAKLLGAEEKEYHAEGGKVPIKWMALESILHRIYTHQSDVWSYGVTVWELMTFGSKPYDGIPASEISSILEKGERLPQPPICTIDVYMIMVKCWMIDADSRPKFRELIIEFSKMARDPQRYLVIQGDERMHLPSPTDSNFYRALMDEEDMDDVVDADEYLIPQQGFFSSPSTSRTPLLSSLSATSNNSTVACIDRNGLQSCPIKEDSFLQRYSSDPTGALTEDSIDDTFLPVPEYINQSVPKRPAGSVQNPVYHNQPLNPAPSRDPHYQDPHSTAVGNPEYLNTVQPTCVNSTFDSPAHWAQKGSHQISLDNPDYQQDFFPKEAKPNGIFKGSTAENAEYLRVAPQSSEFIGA

On to `C=CC(=O)Nc1cc(Nc2nccc(-c3cn(C)c4ccccc34)n2)c(OC)cc1N(C)CCNC` [AZ7550], for which the “affinity towards wild-type EGFR” value on wild-type EGFR was “low affinity towards wild-type EGFR”.
Turning to `[2H]C([2H])=C([2H])C(=O)Nc1cc(Nc2nccc(-c3cn(C)c4ccccc34)n2)c(OC)cc1N(C)CCN(C)C` [D3-osimertinib], the half-life (commonly the time needed for the level to fall by half in the phase considered) in data set [1] (setting [5]) was 4.05 h. Further, in data set [1], the “Improvement (%) of t½ in cysteine solution” value (from here on “Improvement (%) of t½”) came out at 33%.
On to `[2H]C([2H])=C([2H])C(=O)Nc1cc(Nc2nccc(-c3cn(C([2H])([2H])[2H])c4ccccc34)n2)c(OC)cc1N(C)CCN(C)C` [D6-osimertinib], for which, in data set [1] (setting [5]), the half-life was 4.56 h. Also, the “Improvement (%) of t½” value in data set [1] was 23%.
Regarding `[2H]C([2H])([2H])N(c1cc(OC)c(Nc2nccc(-c3cn(C([2H])([2H])[2H])c4ccccc34)n2)cc1NC(=O)C=C)C([2H])([2H])C([2H])([2H])N(C([2H])([2H])[2H])C([2H])([2H])[2H]` [D16-osimertinib], in data set [2], the “difference between the concentrations of Osimertinib and the deuterated compound (percentage remaining)” value is listed as roughly 26%.
Regarding `[2H]C([2H])=C([2H])C(=O)Nc1cc(Nc2nccc(-c3cn(C([2H])([2H])[2H])c4ccccc34)n2)c(OC)cc1N(C([2H])([2H])[2H])C([2H])([2H])C([2H])([2H])N(C([2H])([2H])[2H])C([2H])([2H])[2H]` [D19-osimertinib], the “difference between the concentrations of Osimertinib and the deuterated compound (percentage remaining)” value in data set [2] is given as roughly 28%. Further, the half-life in data set [1] (setting [5]) is 2.75 h. Moreover, in data set [1], the “Improvement (%) of t½” value amounted to 43%.
For `C=CC(=O)Nc1cc(Nc2nccc(-c3cn(C)c4ccccc34)n2)c(OC)cc1N(C)CCN(C)C` [Osimertinib, N-(2-{2-dimethylaminoethyl-methylamino}-4-methoxy-5-{[4-(1-methylindol-3-yl)pyrimidin-2-yl]amino}phenyl)prop-2-enamide], the cell viability entry (in data set [3]; in the data set with HepG2 hepatoma cells) was “did not affect the viability of cells” in each case. Moreover, the exposure AUC(0-t) (commonly the area under the concentration-time curve up to a stated or last time point) in data set [4] came out at 654 ng·h/mL. Further, in data set [1] (reference osimertinib in combo solution with the deuterated compound, read-out: Half-life in cysteine solution, Reference (t½ h) (converted)), the half-life was 5.41 h.

(Values after US9968606B2, “Deuterated compounds for treating cancer and related diseases and conditions, and compositions and methods thereof” (NeuForm Pharmaceuticals, Inc., priority 2015, dated 2018).)
